Here are results for eleven molecules from ChEMBL document CHEMBL1201862, “PubChem BioAssay data set” (2004).

Among the test systems are HOP-92; HOP-62; OVCAR-8; RXF 393; NCI/ADR-RES; 786-0; BT-549; NCI-H23; SW-620; NCI-H226; SK-MEL-2; SK-MEL-5; SF-539; SN12C; UACC-62; LOX IMVI; UO-31; RPMI-8226; CCRF-CEM; T47D.
What all share (test): growth of human tumour cells (NCI), 48 h

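Results reflect a 48-hour exposure of cells in 96-well plates to compound at five concentrations. Here, GI50 denotes the concentration required for 50% inhibition of growth.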 Active and inactive are the calls of the source. Cut-off read from the data, not from the text of the source: active = GI50 up to about 1.1 µM and inactive = higher.

As to `CCCCCCN1CCc2c(C)c(C#N)c3nc4ccccc4n3c21`, the GI50 in the test with HOP-92 was 22.5 µM (inactive); in the test with HOP-62, 92.9 µM (inactive); in the test on OVCAR-8, 29.2 µM (inactive); with RXF 393, 20.7 µM (inactive); in the test with NCI/ADR-RES, > 100 µM (inactive); in the test with 786-0 it was 42.9 µM (inactive). Besides, the GI50 in the test with BT-549 was 65.3 µM (inactive); with NCI-H23, 45 µM (inactive); in the test with SW-620, 23.2 µM (inactive); with NCI-H226, > 100 µM (inactive); with SK-MEL-2, 22.2 µM (inactive); with SK-MEL-5, 11.4 µM (inactive). For the same molecule, the GI50 in the test on SF-539 is > 100 µM (inactive); in the test with SN12C, > 100 µM (inactive); in the test with UACC-62 it was 30.1 µM (inactive); in the test on LOX IMVI, 22.2 µM (inactive); in the test on UO-31, > 100 µM (inactive).
Consider `COc1ccccc1C(=O)c1c(NCc2ccccc2)c(=O)c1=O`, for which the GI50 is > 100 µM (inactive) in the test with HOP-92; > 100 µM (inactive) in the test on HOP-62; > 100 µM (inactive) with OVCAR-8; 0.0708 µM (active) in the test with RXF 393; 32.9 µM (inactive) with RPMI-8226; > 100 µM (inactive) in the test with NCI/ADR-RES. The GI50 in the test with 786-0 is 40.2 µM (inactive); in the test on BT-549, 66.8 µM (inactive); in the test with NCI-H23, > 100 µM (inactive); in the test with SW-620 it was 18.2 µM (inactive); in the test on NCI-H226, > 100 µM (inactive); in the test on SK-MEL-2, > 100 µM (inactive). Also, the GI50 in the test with SK-MEL-5 was > 100 µM (inactive); with CCRF-CEM, 26.1 µM (inactive); in the test on SF-539, 0.0841 µM (active); in the test with SN12C, > 100 µM (inactive); in the test on UACC-62, > 100 µM (inactive); in the test on LOX IMVI it was 29.9 µM (inactive). In addition, the GI50 with UO-31 was > 100 µM (inactive).
Take `COc1ccc(OCC(=N/NC(=O)c2ccncc2)/N=C/c2cccnc2)cc1`: the GI50 is 72.1 µM (inactive) in the test with HOP-62; > 100 µM (inactive) with OVCAR-8; 35.8 µM (inactive) in the test on RXF 393; 67.6 µM (inactive) in the test on RPMI-8226; > 100 µM (inactive) in the test on NCI/ADR-RES; > 100 µM (inactive) with 786-0. Besides, the GI50 in the test with BT-549 was > 100 µM (inactive); in the test on NCI-H23 it was > 100 µM (inactive); with SW-620, 53.1 µM (inactive); in the test with NCI-H226 it was 61.1 µM (inactive); with SK-MEL-2, > 100 µM (inactive); in the test on CCRF-CEM, > 100 µM (inactive). Moreover, the GI50 with SF-539 was 64.3 µM (inactive); in the test with SN12C, > 100 µM (inactive); in the test on UACC-62 it was 43.4 µM (inactive); in the test with T47D, > 100 µM (inactive); in the test on LOX IMVI, 89.7 µM (inactive).
Turning to `CC1=CC=C2c3ccccc3C=CN2C(=O)C1`, the GI50 was > 100 µM (inactive) in the test with HOP-62; 56.5 µM (inactive) in the test on OVCAR-8; 25.7 µM (inactive) in the test on RPMI-8226; 38.7 µM (inactive) with NCI/ADR-RES; 60.7 µM (inactive) in the test on 786-0; 18.9 µM (inactive) in the test on BT-549. The GI50 in the test with NCI-H23 is 61.9 µM (inactive); in the test on SW-620, 49.8 µM (inactive); in the test with NCI-H226, 54.8 µM (inactive); in the test on SK-MEL-2, 22.4 µM (inactive); in the test with SK-MEL-5, 22.1 µM (inactive); in the test with CCRF-CEM, 38.8 µM (inactive). The GI50 was 73.8 µM (inactive) with SF-539; 63.5 µM (inactive) with SN12C; 84.9 µM (inactive) in the test on UACC-62; 32.4 µM (inactive) with T47D; 40.9 µM (inactive) with LOX IMVI; 30.9 µM (inactive) with UO-31.
On to `CCOC(=O)C(NC(=O)c1ccccc1)(N1CCN(c2cc3c(cc2F)c(=O)c(C(=O)O)cn3C2CC2)CC1)C(F)(F)F` (stereo not given), for which the GI50 is 19.8 µM (inactive) in the test with HOP-92; 31 µM (inactive) in the test on HOP-62; 31.3 µM (inactive) with OVCAR-8; 19.5 µM (inactive) in the test on RXF 393; 23.1 µM (inactive) in the test on RPMI-8226; 32.4 µM (inactive) with 786-0. The GI50 is 21.8 µM (inactive) with BT-549; 15.1 µM (inactive) in the test on NCI-H23; 21.5 µM (inactive) with SW-620; 21.2 µM (inactive) in the test on NCI-H226; 18.7 µM (inactive) with SK-MEL-2; 15.8 µM (inactive) in the test on SK-MEL-5. The GI50 in the test with CCRF-CEM was 3.37 µM (inactive); with SF-539, 15.2 µM (inactive); in the test on SN12C, 26.4 µM (inactive); in the test with UACC-62, 22 µM (inactive); with T47D, 20.6 µM (inactive); in the test with UO-31, 23 µM (inactive).
For the molecule `CCOC(=O)CCC(NC(=O)c1ccc(OCc2ccc3nc(OC)c(OC)nc3c2)cc1)C(=O)OCC` (stereo not given), the GI50 in the test on HOP-92 was 40.9 µM (inactive); in the test on HOP-62, > 100 µM (inactive); with OVCAR-8, > 100 µM (inactive); in the test on RXF 393 it was 25.9 µM (inactive); in the test with RPMI-8226, 70.8 µM (inactive); with 786-0, > 100 µM (inactive). Further, the GI50 in the test on BT-549 was 43.3 µM (inactive); in the test with NCI-H23, > 100 µM (inactive); in the test on SW-620, > 100 µM (inactive); in the test with NCI-H226 it was > 100 µM (inactive); in the test with SK-MEL-2 it was 23.3 µM (inactive); in the test on SK-MEL-5, 38.4 µM (inactive). Besides, the GI50 in the test on CCRF-CEM is 24 µM (inactive); in the test with SF-539 it was 57.3 µM (inactive); in the test with SN12C, 45.3 µM (inactive); in the test on UACC-62, 30.4 µM (inactive); with T47D, 31.7 µM (inactive); in the test with LOX IMVI, 80 µM (inactive). In addition, the GI50 with UO-31 was 64.6 µM (inactive).
For the molecule `CN1C=Cc2nccc3cc4c(c1c23)OCO4`, the GI50 was 1.82 µM (inactive) in the test with HOP-62; 5.68 µM (inactive) in the test with OVCAR-8; 0.879 µM (active) in the test on RXF 393; 1.04 µM (active) in the test with RPMI-8226; 11.9 µM (inactive) in the test on NCI/ADR-RES; 1.61 µM (inactive) with 786-0. Further, the GI50 in the test on BT-549 is 1.87 µM (inactive); in the test with NCI-H23, 2.1 µM (inactive); in the test on SW-620 it was 3.64 µM (inactive); in the test with NCI-H226 it was 2.83 µM (inactive); in the test with SK-MEL-2, 3.18 µM (inactive); with SK-MEL-5, 2.06 µM (inactive). The GI50 with CCRF-CEM is 1.39 µM (inactive); in the test with SN12C it was 1.64 µM (inactive); with UACC-62, 1.36 µM (inactive); in the test on T47D, 6.82 µM (inactive); with LOX IMVI it was 6.25 µM (inactive); with UO-31, 2.96 µM (inactive).
As to `O=C1c2ccccc2C2(c3ccc(Cl)cc3)N[C@@H]3CCCC[C@@H]3N12` (stereo not given in full), the GI50 in the test with HOP-92, with HOP-62, in the test with OVCAR-8, with RXF 393, in the test with RPMI-8226 and in the test on 786-0 was > 100 µM (inactive) each time. Besides, the GI50 in the test with BT-549, with NCI-H23, in the test on SW-620, in the test with NCI-H226, in the test with SK-MEL-2 and with SK-MEL-5 was > 100 µM (inactive) throughout. Moreover, the GI50 in the test with CCRF-CEM, in the test with SF-539, in the test on SN12C, in the test with UACC-62, in the test on T47D and in the test on LOX IMVI was > 100 µM (inactive) in each case. Moreover, the GI50 in the test with UO-31 is > 100 µM (inactive).
In the case of `CC(NC(=O)C1(N)CCCC1)C(=O)O` (stereo not given), the GI50 with HOP-62, in the test with OVCAR-8, in the test on RXF 393, in the test with RPMI-8226, in the test on NCI/ADR-RES and with 786-0 was > 100 µM (inactive) each time. Also, the GI50 in the test on BT-549, with NCI-H23, in the test with SW-620, in the test with NCI-H226, in the test on SK-MEL-2 and with SK-MEL-5 was > 100 µM (inactive) each time. In addition, the GI50 in the test with CCRF-CEM, in the test with SN12C, with UACC-62, in the test with T47D, with LOX IMVI and in the test with UO-31 was > 100 µM (inactive) each time.
On to `Cc1c(N/C=C(\C#N)C(=O)c2ccc(Cl)cc2)c(=O)n(-c2ccccc2)n1C`, for which the GI50 in the test with HOP-92 is > 100 µM (inactive); in the test on OVCAR-8, 91.8 µM (inactive); in the test on RXF 393, > 100 µM (inactive); in the test with RPMI-8226, 34.6 µM (inactive); in the test on NCI/ADR-RES, 43.9 µM (inactive); in the test with 786-0, > 100 µM (inactive). Further, the GI50 is 46.6 µM (inactive) with BT-549; > 100 µM (inactive) with NCI-H23; 90.4 µM (inactive) in the test with SW-620; 54 µM (inactive) in the test on NCI-H226; 62.1 µM (inactive) in the test on SK-MEL-2; 66.7 µM (inactive) in the test on SK-MEL-5. Besides, the GI50 was 38.9 µM (inactive) in the test with CCRF-CEM; > 100 µM (inactive) in the test with SF-539; > 100 µM (inactive) in the test on SN12C; 59.3 µM (inactive) in the test with UACC-62; > 100 µM (inactive) in the test with LOX IMVI; 64.9 µM (inactive) in the test on UO-31.
Take `O=C(c1ccco1)N1CCCN(C(=O)c2ccco2)C1=S`: the GI50 is 72.1 µM (inactive) with HOP-62; > 100 µM (inactive) with OVCAR-8; 39.6 µM (inactive) with RXF 393; > 100 µM (inactive) in the test on RPMI-8226; > 100 µM (inactive) with NCI/ADR-RES; > 100 µM (inactive) in the test on 786-0. Besides, the GI50 is > 100 µM (inactive) with BT-549; > 100 µM (inactive) in the test with NCI-H23; > 100 µM (inactive) in the test with SW-620; 36.4 µM (inactive) with NCI-H226; 46.5 µM (inactive) in the test with SK-MEL-2; > 100 µM (inactive) with SK-MEL-5. The GI50 with CCRF-CEM is > 100 µM (inactive); in the test on SF-539, 29.4 µM (inactive); in the test on SN12C, > 100 µM (inactive); in the test on UACC-62 it was > 100 µM (inactive); with T47D, 7.35 µM (inactive); in the test on LOX IMVI, > 100 µM (inactive). For the same molecule, the GI50 in the test with UO-31 was > 100 µM (inactive).
